According to patent publication US20230364057A1, “BACTERIAL DNA GYRASE INHIBITORS AND METHODS OF USE THEREOF” (THE FLORIDA INTERNATIONAL UNIVERSITY BOARD OF TRUSTEES, priority 2022, published 2023):
Converted amounts (≈) assume the structure as drawn. Read-outs that look alike come from different tables or passages of the source.

Key:
E. coli DNA gyrase [1] = molecular target: T1, E. coli DNA gyrase (Escherichia coli (strain K12), UniProt P0AES4+P0AES6); assay: biochemical; type: biochemical
S. aureus (ATCC 14775) = assay: Minimum inhibitory concentration, broth microdilution; details: Staphylococcus aureus
MRSA = assay: as above; details: Staphylococcus aureus, MRSA
E. coli DNA gyrase [2] = molecular target: T1, E. coli DNA gyrase; assay: Agarose gel-based DNA gyrase inhibition assay; type: biochemical
Protocol: 100 ng of DNA gyrase was used to supercoil the rx pAB1 in the presence of different concentrations of a gyrase inhibitor. […] Samples were analyzed by electrophoresis in 1% w/v agarose gels followed by ethidium bromide staining and photographed under UV light.

Mtb DNA gyrase = Mtb DNA gyrase (Mycobacterium tuberculosis (strain ATCC 25618 / H37Rv), UniProt P9WG45+P9WG47); assay: Mtb DNA gyrase inhibition assay (gel-based); type: biochemical; details: Table 5, Mtb gyrase; read-out: IC50 (µM) Mtb
Protocol: The IC50 against E. coli (A) and Mtb (C) gyrase were determined using the gel-based gyrase inhibition assays. The gyrase mediated DNA cleavage assays (B and D) were performed using pBR322. (A) 229 inhibits E. coli gyrase. Lane 1, rx pAB1. […] Lane 1, rx pAB1. […] 100 µM of CPDs were used. Symbols rx, nk, In, and sc represent relaxed, nicked, linear, and supercoiled DNA, respectively.
Agarose gel-based DNA gyrase inhibition assays were performed in 30 µL of 1 ×gyrase buffer (35 mM Tris-HCl, 24 mM KCl, 4 mM MgCl2, 2 mM DTT, 1.75 mM ATP, 0.1 mg/mL BSA, 6.5% glycerol, pH7.5) containing 400 ng of rx pAB1 at 37° C. 100 ng of DNA gyrase was used to supercoil the rx pAB1 in the presence of different concentrations of a gyrase inhibitor. After 15 minutes of incubation with the inhibitor at 37° C., all reactions were stopped with 1 µL of stop solution (3% SDS and 250 mM EDTA). Samples were analyzed by electrophoresis in 1% w/v agarose gels followed by ethidium bromide staining and photographed under UV light.

Mtb = Mtb whole cell assay (% inhibition, MIC); type: cell-based, Mycobacterium tuberculosis; details: Mycobacterium tuberculosis; Table 5 (same values in Table 6 at 20 µM)
B. subtilis (ATCC 6633) = assay: Minimum inhibitory concentration, broth microdilution; details: Bacillus subtilis, ATCC6633, read-out: Minimum Inhibitory Concentration B.subtilis
[3] = IC50 (15-[…] µM), bin of Table 2
[4] = ATCC14775, read-out: Minimum Inhibitory Concentration S.aureus
[5] = read-out: Minimum Inhibitory Concentration S.aureus MRSA
[6] = IC50 (µM) EC, Table 5, E. coli gyrase
[7] = ATCC14775, read-out: MIC (µM) SA
[8] = IC50 (50-200 µM), bin of Table 2
[9] = IC50 ([…]-50 µM), bin of Table 2

Structure (SMILES) | MIC (S. aureus (ATCC 14775); [4]) [µM] | MIC (MRSA; [5]) [µM] | inhibition of E. coli DNA gyrase activities (E. coli DNA gyrase [2]; 50 µM of compounds) | inhibition of E. coli DNA gyrase activities (E. coli DNA gyrase [2]; 200 µM of compounds) | IC50 (E. coli DNA gyrase [1]; [8]) [µM] | also measured
CNc1nnc(-c2ccc(C)cc2)c2ccccc12 [Compound 108] | 200 (≈ 49.9 µg/mL) | 200 (≈ 49.9 µg/mL) | completely inhibited | – | – | IC50 (E. coli DNA gyrase [1]; [3]): 15 to 25 µM
Cc1c(CCC(=O)O)c(=O)oc2cc3occ(-c4ccc(Cl)cc4)c3cc12 [Compound 25] | – | – | almost completely inhibited | completely inhibited | – | IC50 (Mtb DNA gyrase): 65 µM; inhibition of E. coli DNA gyrase activities (E. coli DNA gyrase [1]): potent bacterial DNA gyrase inhibitors; IC50 (E. coli DNA gyrase [1]; [6]): 11.5 µM; MIC (S. aureus (ATCC 14775); [7]): > 200 µM; inhibition at 20 µM (Mtb): 0.8%
Cc1c(CC(=O)O)c(=O)oc2c(C)c3occ(-c4ccc(Br)cc4)c3cc12 [Compound 117] | 1.56 (≈ 0.667 µg/mL) | 1.56 (≈ 0.667 µg/mL) | completely inhibited | – | – | IC50 (Mtb DNA gyrase): 50 µM; IC50 (E. coli DNA gyrase [1]; [6]): 15.7 µM; MIC (S. aureus (ATCC 14775); [7]): 1.6 µM (≈ 0.684 µg/mL); inhibition at 20 µM (Mtb): 24.7%; MIC (MRSA; read-out: MIC (µM) MRSA): 1.6 µM (≈ 0.684 µg/mL)
COC(=O)c1c(NC(=O)CC2Nc3ccccc3NC2=O)sc(C)c1C (stereo not drawn) [Compound 55] | – | 25 (≈ 9.34 µg/mL) | – | almost completely inhibited | 50 to 200 | –
CN1C[C@H](CNC(=O)OCc2ccccc2)C[C@@H]2c3cccc4c3c(cn4C)C[C@H]21 [Compound 45] | 100 (≈ 40.4 µg/mL) | 100 (≈ 40.4 µg/mL) | – | almost completely inhibited | 50 to 200 | MIC (B. subtilis (ATCC 6633)): 100 µM (≈ 40.4 µg/mL)
O=C(O)C(Cc1ccccc1)N1C(=O)/C(=C\C=C\c2ccco2)SC1=S (stereo not drawn) [Compound 157] | 200 (≈ 77.1 µg/mL) | 200 (≈ 77.1 µg/mL) | completely inhibited | – | – | MIC (B. subtilis (ATCC 6633)): 200 µM (≈ 77.1 µg/mL)
O=C1/C(=C\c2ccc(O)cc2)SC(=S)N1Cc1ccccc1 [Compound 44] | 12.5 (≈ 4.09 µg/mL) | 25 (≈ 8.19 µg/mL) | – | completely inhibited | 50 to 200 | MIC (B. subtilis (ATCC 6633)): 25 µM (≈ 8.19 µg/mL)
CN(C)c1ccc(C=C2SC(=S)N(Cc3ccco3)C2=O)cc1 [Compound 228] | – | – | – | potently inhibited | 50 to 200 | –
Cc1cc(/C=C(/C#N)c2nc3ccccc3[nH]2)c(C)n1-c1cc(C(=O)O)cc(C(=O)O)c1 [Compound 63] | – | – | – | completely inhibited | 50 to 200 | –
Cc1ccc2nc3n(c2c1C)C/C(=C/c1ccc(-c2ccccc2C(=O)O)o1)[S+]3[O-] (stereo not drawn) [Compound 155] | 100 (≈ 41.8 µg/mL) | 50 (≈ 20.9 µg/mL) | completely inhibited | – | – | MIC (B. subtilis (ATCC 6633)): 50 µM (≈ 20.9 µg/mL); IC50 (E. coli DNA gyrase [1]; [3]): 15 to 25 µM
COc1ccc(-c2cc(-c3ccco3)nc(O)c2C#N)cc1OC [Compound 28] | – | – | – | almost completely inhibited | 50 to 200 | –
Cc1ccccc1NC1=C/C(=N/S(=O)(=O)c2ccc(C(=O)O)cc2)c2ccccc2C1=O [Compound 4] | 50 (≈ 22.3 µg/mL) | 50 (≈ 22.3 µg/mL) | – | completely inhibited | – | MIC (B. subtilis (ATCC 6633)): 100 µM (≈ 44.6 µg/mL); IC50 (E. coli DNA gyrase [1]; [9]): 25 to 50 µM
c1ccc(Nc2nc(N3CCCC3)c3ccccc3n2)cc1 [Compound 102] | – | – | completely inhibited | – | – | IC50 (E. coli DNA gyrase [1]; [9]): 25 to 50 µM
Cc1cc2c3c(c1)C1CC=CC1C(C(=O)O)N3CC1CC=CC21 (stereo not drawn) [Compound 106] | – | – | potently inhibited | – | 50 to 200 | inhibition of E. coli DNA gyrase activities (E. coli DNA gyrase [1]): inhibit E. coli DNA gyrase strongly
O=C1/C(=C/c2ccc(O)cc2)SC(=S)N1CC1CCCO1 (stereo not drawn) [Compound 61] | – | – | – | almost completely inhibited | 50 to 200 | –
O=C1OC2(c3ccccc31)c1cc(I)c(O)c(I)c1Oc1c2cc(I)c(O)c1I [Compound 253, Erythrosin B] | – | – | – | completely inhibited | – | IC50 (E. coli DNA gyrase [1]; IC50 against E. coli DNA gyrase): < 10 µM
Cc1cccc(/N=C2/NC(=O)/C(=C\C=C\c3ccco3)S2)c1C [Compound 149] | – | – | completely inhibited | – | – | IC50 (E. coli DNA gyrase [1]; [3]): 15 to 25 µM
